Data taken from PubChem BioAssay (NCI).
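Protocol summary: plate cells (96-well), add compound at 5 concentrations, incubate 48 h, interpolate endpoints linearly. Definition used: TGI = concentration required for complete inhibition of growth.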

Experiments:
Assay in all cases: growth of human tumour cells (NCI), 48 h
786-0 renal = system: 786-0 renal
A549 NSCLC = system: A549 NSCLC
ACHN renal = system: ACHN renal
BT-549 breast = system: BT-549 breast
CAKI-1 renal = system: CAKI-1 renal
CCRF-CEM leukemia = system: CCRF-CEM leukemia
COLO 205 colon = system: COLO 205 colon
DU-145 prostate = system: DU-145 prostate
EKVX NSCLC = system: EKVX NSCLC
HCC-2998 colon = system: HCC-2998 colon
HCT-116 colon = system: HCT-116 colon
HCT-15 colon = system: HCT-15 colon
HL-60(TB) leukemia = system: HL-60(TB) leukemia
HOP-62 NSCLC = system: HOP-62 NSCLC
HOP-92 NSCLC = system: HOP-92 NSCLC
HS 578T breast = system: HS 578T breast
HT29 colon = system: HT29 colon
IGROV1 ovarian = system: IGROV1 ovarian
K-562 leukemia = system: K-562 leukemia
KM12 colon = system: KM12 colon
LOX IMVI melanoma = system: LOX IMVI melanoma
M14 melanoma = system: M14 melanoma
MALME-3M melanoma = system: MALME-3M melanoma
MCF7 breast = system: MCF7 breast
MDA-MB-231 breast = system: MDA-MB-231 breast
MDA-MB-435 = system: MDA-MB-435
MDA-N = system: MDA-N
MOLT-4 leukemia = system: MOLT-4 leukemia
NCI-H226 lung = system: NCI-H226 lung
NCI-H23 lung = system: NCI-H23 lung
NCI-H460 lung = system: NCI-H460 lung
NCI-H522 lung = system: NCI-H522 lung
NCI/ADR-RES ovarian = system: NCI/ADR-RES ovarian
OVCAR-3 ovarian = system: OVCAR-3 ovarian
OVCAR-4 ovarian = system: OVCAR-4 ovarian
OVCAR-5 ovarian = system: OVCAR-5 ovarian
OVCAR-8 ovarian = system: OVCAR-8 ovarian
PC-3 prostate = system: PC-3 prostate
RPMI-8226 leukemia = system: RPMI-8226 leukemia
RXF 393 renal = system: RXF 393 renal
SF-268 CNS = system: SF-268 CNS
SF-295 CNS = system: SF-295 CNS
SF-539 CNS = system: SF-539 CNS
SK-MEL-2 melanoma = system: SK-MEL-2 melanoma
SK-MEL-28 melanoma = system: SK-MEL-28 melanoma
SK-MEL-5 melanoma = system: SK-MEL-5 melanoma
SK-OV-3 ovarian = system: SK-OV-3 ovarian
SN12C renal = system: SN12C renal
SNB-19 CNS = system: SNB-19 CNS
SNB-75 CNS = system: SNB-75 CNS
SR leukemia = system: SR leukemia
SW-620 colon = system: SW-620 colon
T-47D breast = system: T-47D breast
TK-10 renal = system: TK-10 renal
U251 CNS = system: U251 CNS
UACC-257 melanoma = system: UACC-257 melanoma
UACC-62 melanoma = system: UACC-62 melanoma
UO-31 renal = system: UO-31 renal
A498 renal = system: A498 renal

Cc1cc(C)c2c(=O)n(CC(O)CN(Cc3ccccc3)CC(O)Cn3sc4nc(C)cc(C)c4c3=O)sc2n1 (centres undefined)
TGI (786-0 renal): 27.7 µM | TGI (A549 NSCLC): 40.7 µM | TGI (ACHN renal): 30.1 µM | TGI (BT-549 breast): 38.3 µM | TGI (CAKI-1 renal): 33.4 µM | TGI (CCRF-CEM leukemia): > 100 µM | TGI (COLO 205 colon): 21.3 µM | TGI (DU-145 prostate): 31.7 µM | TGI (EKVX NSCLC): 44.5 µM | TGI (HCC-2998 colon): 35.7 µM | TGI (HCT-116 colon): 31.5 µM | TGI (HCT-15 colon): 34.4 µM | TGI (HL-60(TB) leukemia): > 100 µM | TGI (HOP-62 NSCLC): 30.1 µM | TGI (HOP-92 NSCLC): 31.7 µM | TGI (HS 578T breast): 40.4 µM | TGI (HT29 colon): 37.4 µM | TGI (IGROV1 ovarian): 31.7 µM | TGI (K-562 leukemia): > 100 µM | TGI (KM12 colon): 31.4 µM | TGI (LOX IMVI melanoma): 33.9 µM | TGI (M14 melanoma): 32.9 µM | TGI (MALME-3M melanoma): 27.4 µM | TGI (MCF7 breast): 32.1 µM | TGI (MDA-MB-231 breast): 31.6 µM | TGI (MDA-MB-435): 31.4 µM | TGI (MDA-N): 32.8 µM | TGI (MOLT-4 leukemia): > 100 µM | TGI (NCI-H226 lung): 33.5 µM | TGI (NCI-H23 lung): 33.4 µM | TGI (NCI-H460 lung): 39.3 µM | TGI (NCI-H522 lung): 22 µM | TGI (NCI/ADR-RES ovarian): 67.2 µM | TGI (OVCAR-3 ovarian): 29.8 µM | TGI (OVCAR-4 ovarian): 32.4 µM | TGI (OVCAR-5 ovarian): 36.4 µM | TGI (OVCAR-8 ovarian): 34.5 µM | TGI (PC-3 prostate): 30.4 µM | TGI (RPMI-8226 leukemia): > 100 µM | TGI (RXF 393 renal): 33.6 µM | TGI (SF-268 CNS): 30.9 µM | TGI (SF-295 CNS): 61.9 µM | TGI (SF-539 CNS): 32 µM | TGI (SK-MEL-2 melanoma): 33.1 µM | TGI (SK-MEL-28 melanoma): 74.1 µM | TGI (SK-MEL-5 melanoma): 30.1 µM | TGI (SK-OV-3 ovarian): 73.6 µM | TGI (SN12C renal): 32.7 µM | TGI (SNB-19 CNS): 34.7 µM | TGI (SNB-75 CNS): 28.9 µM | TGI (SR leukemia): > 100 µM | TGI (SW-620 colon): > 100 µM | TGI (T-47D breast): 41 µM | TGI (TK-10 renal): 31.5 µM | TGI (U251 CNS): 30.6 µM | TGI (UACC-257 melanoma): 31.7 µM | TGI (UACC-62 melanoma): 30.6 µM | TGI (UO-31 renal): 31.6 µM

COc1ccc(C2(CC(C)C)CCNC2)cc1OC (centres undefined)
TGI (786-0 renal): > 100 µM | TGI (A498 renal): > 100 µM | TGI (A549 NSCLC): > 100 µM | TGI (ACHN renal): > 100 µM | TGI (BT-549 breast): > 100 µM | TGI (CAKI-1 renal): > 100 µM | TGI (CCRF-CEM leukemia): > 100 µM | TGI (COLO 205 colon): > 100 µM | TGI (DU-145 prostate): > 100 µM | TGI (EKVX NSCLC): > 100 µM | TGI (HCC-2998 colon): 38.5 µM | TGI (HCT-116 colon): > 100 µM | TGI (HCT-15 colon): > 100 µM | TGI (HL-60(TB) leukemia): > 100 µM | TGI (HOP-62 NSCLC): > 100 µM | TGI (HOP-92 NSCLC): > 100 µM | TGI (HS 578T breast): > 100 µM | TGI (HT29 colon): > 100 µM | TGI (IGROV1 ovarian): > 100 µM | TGI (K-562 leukemia): > 100 µM | TGI (KM12 colon): > 100 µM | TGI (LOX IMVI melanoma): > 100 µM | TGI (M14 melanoma): > 100 µM | TGI (MALME-3M melanoma): > 100 µM | TGI (MCF7 breast): > 100 µM | TGI (MDA-MB-231 breast): > 100 µM | TGI (MDA-MB-435): > 100 µM | TGI (MDA-N): > 100 µM | TGI (NCI-H226 lung): > 100 µM | TGI (NCI-H23 lung): > 100 µM | TGI (NCI-H460 lung): > 100 µM | TGI (NCI-H522 lung): > 100 µM | TGI (NCI/ADR-RES ovarian): > 100 µM | TGI (OVCAR-4 ovarian): > 100 µM | TGI (OVCAR-5 ovarian): > 100 µM | TGI (OVCAR-8 ovarian): > 100 µM | TGI (PC-3 prostate): > 100 µM | TGI (RPMI-8226 leukemia): > 100 µM | TGI (RXF 393 renal): > 100 µM | TGI (SF-268 CNS): > 100 µM | TGI (SF-295 CNS): > 100 µM | TGI (SK-MEL-2 melanoma): > 100 µM | TGI (SK-MEL-28 melanoma): > 100 µM | TGI (SK-MEL-5 melanoma): > 100 µM | TGI (SK-OV-3 ovarian): > 100 µM | TGI (SN12C renal): > 100 µM | TGI (SNB-19 CNS): > 100 µM | TGI (SNB-75 CNS): 86.3 µM | TGI (SR leukemia): > 100 µM | TGI (SW-620 colon): > 100 µM | TGI (T-47D breast): > 100 µM | TGI (TK-10 renal): > 100 µM | TGI (U251 CNS): > 100 µM | TGI (UACC-257 melanoma): > 100 µM | TGI (UACC-62 melanoma): > 100 µM | TGI (UO-31 renal): > 100 µM
